# Test system: Th17 cells
# Assay: Th17 assay (IL-17 in supernatants of differentiating human naive CD4+ T cells, ELISA)
# Assay type: cell-based
# Details: 168 h, Th17 differentiation for seven days with test compound, IL-17 levels in supernatants by ELISA
# Description: Th17 Assay (Another Suitable Assay)
# The following modifications were made to the manufacturer's protocol: 1) Incubation with Biotin-Antibody Cocktail and Anti-Biotin MicroBeads was prolonged to 30 minutes, and 2) Cells were washed with 40 mL of Miltenyi buffer. Differentiation of Th17 cells in anti-CD3 (BD Pharmingen, 5 μg/ml) coated 96-well plates (400,000 cells/well, 160 μl RPMI1640+10% Fetal Bovine Serum) containing 5 μg/ml anti-CD28 (BD Pharmingen), 10 ng/ml IL-2 (R&D Systems), 2.5 ng/ml TGFβ-1 (R&D Systems), 20 ng/ml IL-1β (R&D Systems), 20 ng/ml IL-6 (R&D Systems), 30 ng/ml IL-23 (R&D Systems), 2.5 μg/ml anti-IL-4 (R&D Systems) and 1 μg/ml anti-IFNγ (R&D Systems) and with test compound during the entire differentiation (or vehicle, 0.1% DMSO for control). Test compounds were tested in triplicates, diluted 1000-fold in medium (final DMSO concentration is 0.1%). Incubated for seven days at 37° C., 5% CO2, 95% humidity, and 2-fluoro-4′-[[4-(4-pyridinylmethyl)-1-piperazinyl]methyl]-α,α-bis(trifluoromethyl)-[1,1′-biphenyl]-4-methanol (SR2211 Calbiochem, Cat. No. 557353) was used as positive control. As negative control, cells were differentiated into Th0 using 5 μg/ml anti-CD28 (BD Pharmingen), 10 ng/ml IL-2 (R&D Systems), 2 μg/ml anti-IL4 (R&D Systems) and 2 μg/ml anti-IFNγ (R&D Systems) are negative control. IL-17 levels in supernatants were measured with ELISA (R&D Systems).
row,IC50 [µM],Compound
1,0.161,"NC(=O)CN1CCC(CNc2ncnc(N3CCOC[C@@H]3c3ccc(C(F)(F)F)cc3)c2F)CC1 [Example H6-5, (S)-2-(4-(((5-fluoro-6-(3-(4-(trifluoromethyl)phenyl)morpholino)pyrimidin-4-yl)amino)methyl)piperidin-1-yl)acetamide]"

# Biological target: T1, RORγ (Homo sapiens, UniProt P51449)
# T1 construct: Gal4 (galactose-responsive transcription factor); expressed in transfected cells; host or cells: HEK293
# T1 sequence (P51449 269-508 limits assumed): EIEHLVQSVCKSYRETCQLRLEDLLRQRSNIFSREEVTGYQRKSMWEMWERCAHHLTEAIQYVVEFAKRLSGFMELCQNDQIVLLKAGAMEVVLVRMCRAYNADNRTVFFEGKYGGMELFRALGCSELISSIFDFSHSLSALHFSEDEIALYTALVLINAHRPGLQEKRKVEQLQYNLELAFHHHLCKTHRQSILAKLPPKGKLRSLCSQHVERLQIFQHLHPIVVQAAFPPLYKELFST
# Assay: RORγ Reporter Assay (Gal4)
# Assay type: cell-based
# Details: HEK293 co-transfected with RORγ LBD-Gal4 and luciferase reporter, 24 h incubation, absolute IC50; read-out: IC50
# Description: RORγ Reporter Assay (Gal4)
# The HEK293 cell line is co-transfected transiently with two plasmids, one with the RORγ ligand-binding domain fused to galactose-responsive transcription factor (Gal4), and the other with the luciferase reporter gene and Gal binding sites (UAS). This construction allows to determine the RORγ activity in a cellular system through the measurement of luminescence.
# A suspension of RORγ reporter cells was dispensed into plates and cultured 2 h at 37° C. and 5% CO2. Media formulation consisted in DMEM/F-12 medium (Gibco) supplemented with 10% heat inactivated FBS (Sigma-Aldrich), non-essential aminoacids (Sigma-Aldrich), 2 mM Glutamax (Gibco) and 100 U/mF penicillin (Sigma-Aldrich). Dose-response curves with compounds were prepared in 100% DMSO and further diluted […] in culture medium. Compound solutions were added to the plate containing cells (final DMSO concentration of 0.1%) and incubated for 24 h at 37° C. and 5% CO2. Luciferase detection reagent was added to each well, and relative light units […] were quantified from each assay well using a plate reading luminometer.
# Values of average RFU±S.D. were computed for all treatment sets, followed by the calculations of percent-reduction of RORγ activity in response to respective test compound. The following formula was used: activity=100*[1−[x test compound/average vehicle]where the theoretical minimum reduction (0% reduction).
row,IC50 [µM],Compound
1,0.086,"C[C@@H]1COC[C@H](c2cccc(C(F)(F)F)c2)N1c1ncnc(NC[C@@H]2CCN(CC(N)=O)C[C@H]2O)c1F (single isomer, unassigned) [Example H6-21-3]"
2,0.12,"C[C@@H]1COC[C@H](c2cccc(C(F)(F)F)c2)N1c1ncnc(NC[C@@H]2CCN(CC(N)=O)C[C@H]2O)c1F (single isomer, unassigned) [Example H6-21-4]"
3,0.044,"C[C@@H]1COC[C@H](c2ccc(C(F)(F)F)cc2)N1c1ncnc(NC[C@@H]2CCN(CC(N)=O)C[C@H]2O)c1F (single isomer, unassigned) [Example H6-22-1]"
4,0.06,"C[C@@H]1COC[C@H](c2ccc(C(F)(F)F)cc2)N1c1ncnc(NC[C@@H]2CCN(CC(N)=O)C[C@H]2O)c1F (single isomer, unassigned) [Example H6-22-2]"
5,0.91,CC(C(N)=O)N1CCC(CNc2ncnc(N3CCOC[C@@H]3c3ccc(C(F)(F)F)cn3)c2F)CC1 (some centres unmarked) [Example H6-1]
6,0.33,"NC(=O)CN1CCC(CNc2ncnc(N3CCOC[C@@H]3c3ccc(C(F)(F)F)cn3)c2F)CC1 [Example H6-2, (S)-2-(4-(((5-fluoro-6-(3-(5-(trifluoromethyl)pyridin-2-yl)morpholino)pyrimidin-4-yl)amino)methyl)piperidin-1-yl)acetamide]"
7,0.28,"CC(C)(C(N)=O)N1CCC(CNc2ncnc(N3CCOC[C@@H]3c3ccc(C(F)(F)F)cn3)c2F)CC1 [Example H6-3, (S)-2-(4-(((5-fluoro-6-(3-(5-(trifluoromethyl)pyridin-2-yl)morpholino)pyrimidin-4-yl)amino)methyl)piperidin-1-yl)-2-methylpropanamide]"
8,0.056,"NC(=O)CN1CCC(F)(CNc2ncnc(N3CCOC[C@@H]3c3ccc(C(F)(F)F)cc3)c2F)CC1 [Example H6-4, (S)-2-(4-fluoro-4-(((5-fluoro-6-(3-(4-(trifluoromethyl)phenyl)morpholino)pyrimidin-4-yl)amino)methyl)piperidin-1-yl)acetamide]"
9,0.07,"NC(=O)CN1CCC(CNc2ncnc(N3CCOC[C@@H]3c3ccc(C(F)(F)F)cc3)c2F)CC1 [Example H6-5, (S)-2-(4-(((5-fluoro-6-(3-(4-(trifluoromethyl)phenyl)morpholino)pyrimidin-4-yl)amino)methyl)piperidin-1-yl)acetamide]"
10,0.051,"NC(=O)CN1CCC(F)(CNc2ncnc(N3CCOC[C@@H]3c3ccc(OC(F)(F)F)cc3)c2F)CC1 [Example H6-6, (S)-2-(4-fluoro-4-(((5-fluoro-6-(3-(4-(trifluoromethoxy)phenyl)morpholino)pyrimidin-4-yl)amino)methyl)piperidin-1-yl)acetamide]"
11,0.16,"NC(=O)CN1CCC(F)(CNc2ncnc(N3CCOC[C@@H]3c3ccc(C(F)(F)F)cn3)c2F)CC1 [Example H6-8, (S)-2-(4-fluoro-4-(((5-fluoro-6-(3-(5-(trifluoromethyl)pyridin-2-yl)morpholino)pyrimidin-4-yl)amino)methyl)piperidin-1-yl)acetamide]"
12,0.23,"NC(=O)CN1CCC(O)(CNc2ncnc(N3CC(F)(F)C[C@@H]3c3ccc(C(F)(F)F)cc3)c2F)CC1 [Example H6-14, (R)-2-(4-(((6-(4,4-difluoro-2-(4-(trifluoromethyl)phenyl)pyrrolidin-1-yl)-5-fluoropyrimidin-4-yl)amino)methyl)-4-hydroxypiperidin-1-yl)acetamide]"
13,0.19,"NC(=O)CN1CCC(CNc2ncnc(N3CCOC[C@@H]3c3ccc(OC(F)(F)F)cc3)c2F)CC1 [Example H6-23, (S)-2-(4-(((5-fluoro-6-(3-(4-(trifluoromethoxy)phenyl)morpholino)pyrimidin-4-yl)amino)methyl)piperidin-1-yl)acetamide]"
14,0.14,"NC(=O)CN1CCC(CNc2ncnc(N3CC(F)(F)CC3c3ccc(C(F)(F)F)cc3)c2F)CC1 (centres unmarked) [Example H6-24, 2-(4-(((6-(4,4-difluoro-2-(4-(trifluoromethyl)phenyl)pyrrolidin-1-yl)-5-fluoropyrimidin-4-yl)amino)methyl)piperidin-1-yl)acetamide]"
15,0.088,"NC(=O)CN1CCC(CNc2ncnc(N3CCCC3c3ccc(C(F)(F)F)cc3)c2F)CC1 (centres unmarked) [Example H6-25, 2-(4-(((5-fluoro-6-(2-(4-(trifluoromethyl)phenyl)pyrrolidin-1-yl)pyrimidin-4-yl)amino)methyl)piperidin-1-yl)acetamide]"
16,0.066,"NC(=O)CN1CCC(CNc2ncnc(N3CCC[C@@H]3c3ccc(C(F)(F)F)cc3)c2F)CC1 [Example H6-25-1, (R)-2-(4-(((5-fluoro-6-(2-(4-(trifluoromethyl)phenyl)pyrrolidin-1-yl)pyrimidin-4-yl)amino)methyl)piperidin-1-yl)acetamide]"
17,0.44,"NC(=O)CN1CCC(CNc2ncnc(N3CCCC3c3ccc(C(F)(F)F)cc3O)c2F)CC1 (centres unmarked) [Example H6-26, 2-(4-(((5-fluoro-6-(2-(2-hydroxy-4-(trifluoromethyl)phenyl)pyrrolidin-1-yl)pyrimidin-4-yl)amino)methyl)piperidin-1-yl)acetamide]"
18,0.3,"NC(=O)CN1CCC(CNc2ncnc(N3CCC3c3ccc(C(F)(F)F)cc3)c2F)CC1 (centres unmarked) [Example H6-28, 2-(4-(((5-fluoro-6-(2-(4-(trifluoromethyl)phenyl)azetidin-1-yl)pyrimidin-4-yl)amino)methyl)piperidin-1-yl)acetamide]"

# Same assay, conditions: comparison compounds from WO2016020295, Tables 5 and 6; read-out: Gal4 assay IC50
row,IC50 [µM],Compound
1,< 0.5,"NC(=O)Cc1ccc(CNc2ncnc(N3CCOC[C@@H]3c3ccc(C(F)(F)F)cc3)c2F)cc1 [Example 204, reference compound]"
2,< 1,"NC(=O)CC1CCC(CNc2ncnc(N3CCOC[C@@H]3c3ccc(C(F)(F)F)cc3)c2F)CC1 (some centres unmarked) [Example 206, reference compound]"
3,< 0.1,"NC(=O)Cc1ccc(CNc2ncnc(N3CCOC[C@@H]3c3ccc(OC(F)(F)F)cc3)c2F)cc1 [Example 230, reference compound]"
4,< 0.5,"NC(=O)CC1CCC(CNc2ncnc(N3CCOC[C@@H]3c3ccc(OC(F)(F)F)cc3)c2F)CC1 (some centres unmarked) [Example 245, reference compound]"

# Reference: US11447479B2, “Compounds active towards nuclear receptors” (NUEVOLUTION A/S, priority 2019, dated 2022)
